According to ChEMBL document CHEMBL4665869, “New thiazolopyrimidine as anticancer agents: Synthesis, biological evaluation, DNA binding, molecular modeling and ADMET study” (Bioorg Med Chem Lett, 2020):
≈ marks a conversion by molar mass, not a printed value. Calls of active or inactive are those of the source. The rule behind the calls is not given here.

Assays:
HCC 2998 = assay: Growth inhibition of human HCC 2998 cells at 10 uM relative to control; format: functional
SN12C = assay: Growth inhibition of human SN12C cells at 10 uM relative to control; format: functional
[1] = Growth inhibition of human renal cancer cells; format: functional; conditions: Renal cancer cell line
[2] = Growth inhibition of human colon cancer cells; format: functional; conditions: Colon cancer cell line
DNA = assay: Displacement of methyl green from DNA (unknown origin) assessed as DNA intercalation after 24 hrs by colorimetric assay; format: nucleic-acid assay
SF-268 = assay: Growth inhibition of human SF-268 cells at 10 uM relative to control; format: functional
UACC-62 = assay: Growth inhibition of human UACC-62 cells at 10 uM relative to control; format: functional
PC-3 = assay: Growth inhibition of human PC-3 cells at 10 uM relative to control; format: functional
NCI-H23 = assay: Growth inhibition of human NCI-H23 cells at 10 uM relative to control; format: functional
SK-MEL-28 = assay: Growth inhibition of human SK-MEL-28 cells at 10 uM relative to control; format: functional
MOLT-4 = assay: Growth inhibition of human MOLT-4 cells at 10 uM relative to control; format: functional
HOP-92 = assay: Growth inhibition of human HOP-92 cells at 10 uM relative to control; format: functional
[3] = Growth inhibition of human ovarian cancer cells; format: functional; conditions: Ovarian cancer cell line
HCT-116 = assay: Growth inhibition of human HCT-116 cells at 10 uM relative to control; format: functional
NCI/ADR-RES = assay: Growth inhibition of human NCI/ADR-RES cells at 10 uM relative to control; format: functional; conditions: read-out: GI
SK-MEL-5 = assay: Growth inhibition of human SK-MEL-5 cells at 10 uM relative to control; format: functional
HT-29 = assay: Growth inhibition of human HT-29 cells at 10 uM relative to control; format: functional
Hs-578T = assay: Growth inhibition of human Hs-578T cells at 10 uM relative to control; format: functional; conditions: read-out: GI
SF-539 = assay: Growth inhibition of human SF-539 cells at 10 uM relative to control; format: functional
LOX IMVI = assay: Growth inhibition of human LOX IMVI cells at 10 uM relative to control; format: functional
HL-60(TB) = assay: Growth inhibition of human HL-60(TB) cells at 10 uM relative to control; format: functional
NCI-H460 = assay: Growth inhibition of human NCI-H460 cells at 10 uM relative to control; format: functional
SNB-75 = assay: Growth inhibition of human SNB-75 cells at 10 uM relative to control; format: functional; conditions: read-out: GI
SK-MEL-2 = assay: Growth inhibition of human SK-MEL-2 cells at 10 uM relative to control; format: functional
DU-145 = assay: Growth inhibition of human DU-145 cells at 10 uM relative to control; format: functional
OVCAR-8 = assay: Growth inhibition of human OVCAR-8 cells at 10 uM relative to control; format: functional; conditions: read-out: GI
HCT-15 = assay: Growth inhibition of human HCT-15 cells at 10 uM relative to control; format: functional
ACHN = assay: Growth inhibition of human ACHN cells at 10 uM relative to control; format: functional
[4] = Growth inhibition of human CNS cancer cells; format: functional; conditions: CNS cell
SK-OV-3 = assay: Growth inhibition of human SK-OV-3 cells at 10 uM relative to control; format: functional
[5] = Growth inhibition of human prostate cancer cells; format: functional; conditions: Prostate tumor cell line
UO-31 = assay: Growth inhibition of human UO-31 cells at 10 uM relative to control; format: functional
BT-549 = assay: Growth inhibition of human BT-549 cells at 10 uM relative to control; format: functional
M14 = assay: Growth inhibition of human M14 cells at 10 uM relative to control; format: functional
RXF 393 = assay: Growth inhibition of human RXF 393 cells at 10 uM relative to control; format: functional
MDA-MB-231 = assay: Growth inhibition of human MDA-MB-231 cells at 10 uM relative to control; format: functional
A549 = assay: Growth inhibition of human A549 cells at 10 uM relative to control; format: functional
UACC-257 = assay: Growth inhibition of human UACC-257 cells at 10 uM relative to control; format: functional
HOP-62 = assay: Growth inhibition of human HOP-62 cells at 10 uM relative to control; format: functional
OVCAR-4 = assay: Growth inhibition of human OVCAR-4 cells at 10 uM relative to control; format: functional; conditions: read-out: GI
COLO 205 = assay: Growth inhibition of human COLO 205 cells at 10 uM relative to control; format: functional
[6] = Growth inhibition of human Non-small cell lung cancer cells; format: functional; conditions: Non-small cell lung cancer cell line
KM12 = assay: Growth inhibition of human KM12 cells at 10 uM relative to control; format: functional
IGROV-1 = assay: Growth inhibition of human IGROV-1 cells at 10 uM relative to control; format: functional
U-251 = assay: Growth inhibition of human U-251 cells at 10 uM relative to control; format: functional
Melanoma cell line = assay: Growth inhibition of human melanoma cancer cells; format: functional
TK-10 = assay: Growth inhibition of human TK-10 cells at 10 uM relative to control; format: functional
CCRF-CEM = assay: Growth inhibition of human CCRF-CEM cells at 10 uM relative to control; format: functional
RPMI-8226 = assay: Growth inhibition of human RPMI-8226 cells at 10 uM relative to control; format: functional
MDA-MB-435 = assay: Growth inhibition of human MDA-MB-435 cells at 10 uM relative to control; format: functional
MDA-MB-468 = assay: Growth inhibition of human MDA-MB-468 cells at 10 uM relative to control; format: functional
786-0 = assay: Growth inhibition of human 786-0 cells at 10 uM relative to control; format: functional
SW-620 = assay: Growth inhibition of human SW-620 cells at 10 uM relative to control; format: functional
SR = assay: Growth inhibition of human SR cells at 10 uM relative to control; format: functional
Leukemia cell = assay: Growth inhibition of human leukemia cancer cells; format: functional
[7] = read-out: LC50 (the source's name)

**Q.** Which “growth inhibition (GI)” value (HCC 2998) does the source give for COc1cc(/C=C/C2=CC(c3cc(OC)c(OC)c(OC)c3)N3C=C(C)SC3=N2)cc(OC)c1OC (stereo unspecified) here?
**A.** Active

**Q.** What about the “growth inhibition (GI)” value (SN12C) of the same molecule?
**A.** Active

**Q.** And the GI50 [1]?
**A.** 1.49 µM

**Q.** What about the TGI [1] of the same molecule?
**A.** 4.38 µM

**Q.** What about the CC50 [1, 7] of the same molecule?
**A.** 54.7 µM

**Q.** And the GI50 [2]?
**A.** 0.92 µM

**Q.** And the TGI [2]?
**A.** 3.62 µM

**Q.** What about the CC50 [2, 7] of the same molecule?
**A.** 36 µM

**Q.** What about the IC50 (DNA) of the same molecule?
**A.** 36.13 µg/mL (≈ 70.8 µM)

**Q.** What about the “growth inhibition (GI)” value (SF-268) of the same molecule?
**A.** Active

**Q.** What about the “growth inhibition (GI)” value (UACC-62) of the same molecule?
**A.** Active

**Q.** What about the “growth inhibition (GI)” value (PC-3) of the same molecule?
**A.** Active

**Q.** And the “growth inhibition (GI)” value (NCI-H23)?
**A.** Active

**Q.** What about the “growth inhibition (GI)” value (SK-MEL-28) of the same molecule?
**A.** Active

**Q.** And the “growth inhibition (GI)” value (MOLT-4)?
**A.** Active

**Q.** And the “growth inhibition (GI)” value (HOP-92)?
**A.** Active

**Q.** And the GI50 [3]?
**A.** 1.75 µM

**Q.** And the TGI [3]?
**A.** 33.9 µM

**Q.** And the CC50 [3, 7]?
**A.** 76.5 µM

**Q.** What about the “growth inhibition (GI)” value (HCT-116) of the same molecule?
**A.** Active

**Q.** What about the inhibition of growth at 10 µM (NCI/ADR-RES) of the same molecule?
**A.** 80.6%

**Q.** What about the “growth inhibition (GI)” value (SK-MEL-5) of the same molecule?
**A.** Active

**Q.** What about the “growth inhibition (GI)” value (HT-29) of the same molecule?
**A.** Active

**Q.** What about the inhibition of growth at 10 µM (Hs-578T) of the same molecule?
**A.** 98%

**Q.** What about the “growth inhibition (GI)” value (SF-539) of the same molecule?
**A.** Active

**Q.** And the “growth inhibition (GI)” value (LOX IMVI)?
**A.** Active

**Q.** And the “growth inhibition (GI)” value (HL-60(TB))?
**A.** Active

**Q.** What about the “growth inhibition (GI)” value (NCI-H460) of the same molecule?
**A.** Active

**Q.** And the inhibition of growth at 10 µM (SNB-75)?
**A.** 75.6%

**Q.** And the “growth inhibition (GI)” value (SK-MEL-2)?
**A.** Active

**Q.** And the “growth inhibition (GI)” value (DU-145)?
**A.** Active

**Q.** What about the inhibition of growth at 10 µM (OVCAR-8) of the same molecule?
**A.** 91.9%

**Q.** What about the “growth inhibition (GI)” value (HCT-15) of the same molecule?
**A.** Active

**Q.** And the “growth inhibition (GI)” value (ACHN)?
**A.** Active

**Q.** What about the GI50 [4] of the same molecule?
**A.** 1.85 µM

**Q.** And the TGI [4]?
**A.** 10.2 µM

**Q.** What about the CC50 [4, 7] of the same molecule?
**A.** 54.2 µM

**Q.** What about the “growth inhibition (GI)” value (SK-OV-3) of the same molecule?
**A.** Active

**Q.** And the GI50 [5]?
**A.** 1.69 µM

**Q.** What about the TGI [5] of the same molecule?
**A.** 52.9 µM

**Q.** And the CC50 [5, 7]?
**A.** > 100 µM

**Q.** What about the “growth inhibition (GI)” value (UO-31) of the same molecule?
**A.** Active

**Q.** And the “growth inhibition (GI)” value (BT-549)?
**A.** Active

**Q.** What about the “growth inhibition (GI)” value (M14) of the same molecule?
**A.** Active

**Q.** And the “growth inhibition (GI)” value (RXF 393)?
**A.** Active

**Q.** What about the “growth inhibition (GI)” value (MDA-MB-231) of the same molecule?
**A.** Active

**Q.** And the “growth inhibition (GI)” value (A549)?
**A.** Active

**Q.** What about the “growth inhibition (GI)” value (UACC-257) of the same molecule?
**A.** Active

**Q.** What about the “growth inhibition (GI)” value (HOP-62) of the same molecule?
**A.** Active

**Q.** And the inhibition of growth at 10 µM (OVCAR-4)?
**A.** 88.4%

**Q.** And the “growth inhibition (GI)” value (COLO 205)?
**A.** Active

**Q.** And the GI50 [6]?
**A.** 1.94 µM

**Q.** And the TGI [6]?
**A.** 4.81 µM

**Q.** And the CC50 [6, 7]?
**A.** 62.9 µM

**Q.** And the “growth inhibition (GI)” value (KM12)?
**A.** Active

**Q.** What about the “growth inhibition (GI)” value (IGROV-1) of the same molecule?
**A.** Active

**Q.** And the “growth inhibition (GI)” value (U-251)?
**A.** Active

**Q.** And the GI50 (Melanoma cell line)?
**A.** 0.99 µM

**Q.** What about the TGI (Melanoma cell line) of the same molecule?
**A.** 3.37 µM

**Q.** And the CC50 (Melanoma cell line; [7])?
**A.** 18.2 µM

**Q.** What about the “growth inhibition (GI)” value (TK-10) of the same molecule?
**A.** Active

**Q.** What about the “growth inhibition (GI)” value (CCRF-CEM) of the same molecule?
**A.** Active

**Q.** And the “growth inhibition (GI)” value (RPMI-8226)?
**A.** Active

**Q.** What about the “growth inhibition (GI)” value (MDA-MB-435) of the same molecule?
**A.** Active

**Q.** And the “growth inhibition (GI)” value (MDA-MB-468)?
**A.** Active

**Q.** What about the “growth inhibition (GI)” value (786-0) of the same molecule?
**A.** Active

**Q.** And the “growth inhibition (GI)” value (SW-620)?
**A.** Active

**Q.** What about the “growth inhibition (GI)” value (SR) of the same molecule?
**A.** Active

**Q.** What about the GI50 (Leukemia cell) of the same molecule?
**A.** 0.43 µM

**Q.** And the TGI (Leukemia cell)?
**A.** 61.9 µM

**Q.** What about the CC50 (Leukemia cell; [7]) of the same molecule?
**A.** > 100 µM
